# Experimental data from patent publication US20110021556A1, “PYRROLIDINYL DERIVATIVES AND USES THEREOF” (Hoffman-La Roche, Inc., priority 2008, published 2011).
# Structures can show the parent of a compound that is named as a salt.
structure (smiles),measurement,value
c1ccc(CC2(c3ccc4[nH]ccc4c3)CCNC2)nc1 (centres unmarked),melting point,169.9 to 171.1 °C
c1ccc(CC2(c3ccc4sccc4c3)CCNC2)cc1 (centres unmarked) (as salt: hydrochloride),melting point,120.9 to 123 °C
